According to patent US7749981B2, “Drug-eluting stents coated with non-nucleotide P2Y12 receptor antagonist compound” (Inspire Pharmaceuticals, Inc., priority 2005, dated 2010):
Where two headings read alike, the source gives them in different places.

System: washed human platelets
Test: Inhibition of ADP-induced platelet aggregation in washed human platelets
Type: cell-based
Settings: for activity as antagonists of P2Y12-mediated platelet aggregation (in words): comment on Table 1 data; for IC50: agonist challenge (ADP) typically 1-5 μM, average of two experiments or more
Protocol: Isolation of Platelets: Human blood is obtained from informed healthy adult volunteers. Blood is collected into one-sixth volume of acid/citrate/dextrose (ACD) buffer (85 mM sodium citrate, 65 mM citric acid, and 100 mM glucose). Collected blood is placed in a water bath at 37° C. for 30 minutes. Blood is then centrifuged at 275×g for 16 minutes at room temperature and the platelet-rich plasma is removed and centrifuged at 2200×g for 13 minutes at room temperature. The platelet pellet is resuspended in 40 mL of HEPES-buffered Tyrode's solution (137 mM NaCl, 2.7 mM KCl, 1 mM MgCl2, 2 mM CaCl2, 12 mM NaHCO3, 0.36 mM NaH2PO4, 5.5 mM glucose, 5 mM HEPES pH 7.4, 0.35% bovine serum albumin or 0.35% human serum albumin) containing 10 U/mL heparin and 5 μM (final concentration) prostaglandin 12 (PGI2). The platelet suspension is incubated in a 37° C. water bath for 10 minutes and then 5 μM (final conc.) PGI2 is added just before centrifugation at 1900×g for 8 minutes. The resulting pellet is resuspended in 40 mL of HEPES-buffered Tyrode's solution containing 5 μM (final concentration) PGI2 and then is incubated for 10 minutes in a 37° C. water bath. A small aliquot (500 μL) of the platelet suspension is removed for platelet counting. Prior to centrifugation 5 μM (final concentration) PGI2 is added to the suspension and then the suspension is centrifuged at 1900×g for 8 minutes. The pellet is resuspended at a density of 5×10^8 cells/mL in HEPES-buffered Tyrode's solution containing 0.05 U/mL apyrase.
Aggregation Studies: ADP-induced platelet aggregation is determined by measuring the transmission of light through a 0.5 ml suspension of stirred (1000 rpm) washed platelets in a lumi-aggregometer at 37° C. (Chrono-Log Corp. Havertown, Pa.). The baseline of the instrument is set using 0.5 ml of Hepes-buffered Tyrode's solution. Prior to aggregation measurements, the platelet suspension is supplemented with 1 mg/ml fibrinogen. Platelet aggregation is initiated by the addition of indicated concentrations of ADP or other agonists, and the light transmission is continuously recorded for at least 8 min. When inhibitors of platelet aggregation are tested, platelets are incubated for 2 min in the presence of indicated concentrations of inhibitor before addition of ADP or other agonists, and the response is recorded for at least 8 min. The potency of agonists and inhibitors of platelet aggregation is calculated from both the rate of aggregation and the maximal extent of aggregation obtained for each determination by fitting the data to a four-parameter logistic equation using the GraphPad software package (GraphPad Corp. San Diego, Calif.).
IC50 values represent the concentration of antagonist necessary to inhibit by 50% the aggregation elicited by a given concentration of ADP.
Platelet IC50 data were determined using washed human platelets, according to the protocol of example 14. Agonist challenge (ADP) typically in the range of 1-5 μM.

[1] = read-out: PLATELET DATA IC50 (uM) Washed Platelets, washed human platelets
[2] = Homo sapiens, Platelet, read-out: PLATELET DATA IC50 (uM) Washed Platelets, washed human platelets

| Molecule | IC50 [1] [µM] | IC50 [2] [µM] | activity as antagonists of P2Y12-mediated platelet aggregation (in words) (washed human platelets) |
| --- | --- | --- | --- |
| 2-{6-[6-(3-Ethyl-ureido)-purin-9-yl]-2-phenylethynyl-tetrahydro-furo[3,4-d][1,3]dioxol-4-ylmethoxy}-nicotinic acid [Compound 26] | 1 |  | show P2Y12 antagonist activity |
| CC1(C)OC2C(COc3ccc(C(=O)O)cc3C(=O)O)OC(n3cnc4c(NC(=O)Nc5ccccc5)ncnc43)C2O1 (stereo not drawn) [Compound 1, 4-{2,2-Dimethyl-6-[6-(3-phenyl-ureido)-purin-9-yl]-tetrahydro-furo[3,4-d][1,3]dioxol-4-ylmethoxy}-isophthalic acid] |  | 6.6 | show P2Y12 antagonist activity |
| O=C(Nc1ccccc1)Nc1ncnc2c1ncn2C1OC(COc2ncccc2C(=O)O)C2OC(c3ccccc3C(F)(F)F)OC21 (stereo not drawn) [Compound 14, 2-[6-[6-(3-Phenyl-ureido)-purin-9-yl]-2-(2-trifluoromethyl-phenyl)-tetrahydro-furo[3,4-d][1,3]dioxol-4-ylmethoxy]-nicotinic acid] |  | 8.1 | show P2Y12 antagonist activity |
| CS(=O)(=O)NC(=O)NCC1OC(n2cnc3c(NC(=O)Nc4ccccc4)ncnc32)C2OC(Cc3ccccc3)OC12 (stereo not drawn) [Compound 37, 1-(9-{2-Benzyl-6-[(3-methylsulfonyl-ureido)-methyl]-tetrahydro-furo[3,4-d][1,3]dioxol-4-yl}-9H-purin-6-yl)-3-phenyl-urea] |  | 15 | show P2Y12 antagonist activity |
| CCNC(=O)Nc1ncnc2c1ncn2C1OC(C(=O)N2CCC[C@@H]2C(=O)O)C2O[C@H](/C=C/c3ccccc3)OC21 (stereo partly drawn) [Compound 70, 1-{6-[6-(3-Ethyl-ureido)-purin-9-yl]-2-trans-styryl-tetrahydro-furo[3,4-d][1,3]dioxole-4-carbonyl}-D-pyrrolidine-2-carboxylic acid] |  | 0.397 | improved potency |
| CCNC(=O)Nc1ncnc2c1ncn2C1CC(COCc2ncccc2C(=O)O)C2OC(/C=C/c3ccccc3)OC21 (stereo not drawn) [Compound 130, 2-{6-[6-(3-Ethyl-ureido)-purin-9-yl]-2-trans-styryl-tetrahydro-cyclopenta[1,3]dioxol-4-ylmethoxymethyl}-nicotinic acid] | 0.057 |  |  |
| CCNC(=O)Nc1ncnc2c1ncn2C1OC(CCc2c(F)cccc2C(=O)O)C2O[C@H](c3ccccc3)OC21 (stereo partly drawn) [Compound 158, 2-(2-{6-[6-(3-Ethyl-ureido)-purin-9-yl]-2-trans-phenyl-tetrahydro-furo[3,4-d][1,3]dioxol-4-yl}-ethyl)-3-fluoro-benzoic acid] |  | 8 | active molecules |
| CCNC(=O)Nc1ncnc2c1ncn2C1OC(CCC(=O)O)C2OC(C=Cc3ccccc3)OC21 (stereo not drawn) [Compound 183, 3-{6-[6-(3-Ethyl-ureido)-purin-9-yl]-2-styryl-tetrahydro-furo[3,4-d][1,3]dioxol-4-yl}-propionic acid] |  | 0.376 | P2Y12 antagonist activity can be obtained |
| CCNC(=O)Nc1ncnc2c1ncn2C1CC(COCC(=O)O)C2OC(C=Cc3ccccc3)OC21 (stereo not drawn) [Compound 189, {6-[6-(3-Ethyl-ureido)-purin-9-yl]-2-trans-styryl-tetrahydro-cyclopenta[1,3]dioxol-4-ylmethoxy}-acetic acid] | 0.243 |  | P2Y12 antagonist activity can be obtained |

Further lines, with some results ahead:

| IC50 [1] [µM] | IC50 [2] [µM] | Molecule | activity as antagonists of P2Y12-mediated platelet aggregation (in words) (washed human platelets) |
| --- | --- | --- | --- |
| 0.441 |  | CCNC(=O)Nc1ncnc2c1ncn2C1OC(C(=O)N2CCC[C@H]2C(=O)O)C2OC(c3ccccc3)OC21 (stereo in doubt) [Compound 69, 1-{6-[6-(3-Ethyl-ureido)-purin-9-yl]-2-trans-phenyl-tetrahydro-furo[3,4-d][1,3]dioxole-4-carbonyl}-L-pyrrolidine-2-carboxylic acid] | improved potency |
|  | 18 | O=C(Nc1ccccc1)Nc1ncnc2c1ncn2C1OC(COc2ncccc2C(=O)O)C2OC(c3ccc4ccccc4c3)OC21 (stereo not drawn) [Compound 19, 2-{2-Naphthalen-2-yl-6-[6-(3-phenyl-ureido)-purin-9-yl]-tetrahydro-furo[3,4-d][1,3]dioxol-4-ylmethoxy}-nicotinic acid] | show P2Y12 antagonist activity |
|  | 2.15 | CCCCCCNC(=O)Nc1ncnc2c1ncn2C1OC(COc2ncccc2C(=O)O)C2OC(c3ccccc3)OC21 (stereo not drawn) [Compound 24, 2-{6-[6-(3-Hexyl-ureido)-purin-9-yl]-2-phenyl-tetrahydro-furo[3,4-d][1,3]dioxol-4-ylmethoxy}-nicotinic acid] | show P2Y12 antagonist activity |
|  | 0.75 | O=C(Nc1ncnc2c1ncn2C1OC(C(=O)N2CCCC2C(=O)O)C2OC(Cc3ccccc3)OC21)NC1CCCC1 (stereo not drawn) [Compound 36, 1-{2-Benzyl-6-[6-(3-cyclopentyl-ureido)-purin-9-yl]-tetrahydro-furo[3,4-d][1,3]dioxole-4-carbonyl}-pyrrolidine-2-carboxylic acid] | show P2Y12 antagonist activity |
|  | 0.728 | CCNC(=O)Nc1ncnc2c1ncn2C1OC(C(=O)N2CCC[C@H]2C(=O)O)C2O[C@H](c3ccccc3)OC21 (stereo partly drawn) [Compound 65, 1-{6-[6-(3-Ethyl-ureido)-purin-9-yl]-2-trans-phenyl-tetrahydro-furo[3,4-d][1,3]dioxole-4-carbonyl}-L-pyrrolidine-2-carboxylic acid] | improved potency |
| 0.057 | < 0.1 | CCNC(=O)Nc1ncnc2c1ncn2C1OC(COCc2ccccc2C(=O)O)C2O[C@H](c3ccccc3)OC21 (stereo partly drawn) [Compound 107, 2-{6-[6-(3-Ethyl-ureido)-purin-9-yl]-2-trans-phenyl-tetrahydro-furo[3,4-d][1,3]dioxol-4-ylmethoxymethyl}-benzoic acid] |  |
| 0.098 | < 0.1 | CCNC(=O)Nc1ncnc2c1ncn2C1OC(COCc2ccccc2C(=O)O)C2O[C@@H](c3ccccc3)OC21 (stereo partly drawn) [Compound 108, 2-{6-[6-(3-Ethyl-ureido)-purin-9-yl]-2-cis-phenyl-tetrahydro-furo[3,4-d][1,3]dioxol-4-ylmethoxymethyl}-benzoic acid] |  |
|  | 0.512 | CCNC(=O)Nc1ncnc2c1ncn2C1OC(CNCC(=O)O)C2O[C@H](/C=C/c3ccccc3)OC21 (stereo partly drawn) [Compound 191, ({6-[6-(3-Ethyl-ureido)-purin-9-yl]-2-trans-styryl-tetrahydro-furo[3,4-d][1,3]dioxol-4-ylmethyl}-amino)-acetic acid] | P2Y12 antagonist activity can be obtained |
|  | 0.163 | CCNC(=O)Nc1ncnc2c1ncn2C1OC(C(=O)O)C2O[C@H](/C=C/c3ccccc3)OC21 (stereo partly drawn) [Compound 210, 6-[6-(3-Ethyl-ureido)-purin-9-yl]-2-trans-styryl-tetrahydro-furo[3,4-d][1,3]dioxole-4-carboxylic acid] | P2Y12 antagonist activity can be obtained |
|  | 0.503 | CCNC(=O)Nc1ncnc2c1ncn2C1CC(COC(=S)NCC(=O)O)C2O[C@H](/C=C/c3ccccc3)OC21 (stereo partly drawn) [Compound 233, {6-[6-(3-Ethyl-ureido)-purin-9-yl]-2-trans-styryl-tetrahydro-cyclopenta[1,3]dioxol-4-ylmethoxythiocarbonylamino}-acetic acid] | show P2Y12 antagonist activity |
| 0.086 |  | CCNC(=O)Nc1ncnc2c1ncn2C1CC(CNC(=O)c2ccccc2C(=O)O)C2OC(C=Cc3ccccc3)OC21 (stereo not drawn) [Compound 239, N-{6-[6-(3-Ethyl-ureido)-purin-9-yl]-2-trans-styryl-tetrahydro-cyclopenta[1,3]dioxol-4-ylmethyl}-phthalamic acid] | show potent activity |
